According to patent US20230295087A1, “AGONISTS OF ROR GAMMAt” (BRISTOL-MYERS SQUIBB COMPANY, priority 2019, published 2023):

Target: T1, human RORgT (Homo sapiens, UniProt P51449)
T1 construct: expressed in transfected cells
T1 sequence (P51449 267-516): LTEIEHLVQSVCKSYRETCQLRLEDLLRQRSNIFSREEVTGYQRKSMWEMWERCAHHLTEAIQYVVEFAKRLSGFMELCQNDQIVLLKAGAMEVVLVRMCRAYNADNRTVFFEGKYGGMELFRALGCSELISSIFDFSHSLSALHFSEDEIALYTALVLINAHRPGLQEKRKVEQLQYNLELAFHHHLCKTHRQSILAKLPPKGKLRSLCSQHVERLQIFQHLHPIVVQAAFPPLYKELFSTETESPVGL
Assay: RORgT Gal4 Luciferase Reporter Gene Assay
Assay type: cell-based
Details: engineered Jurkat cells overexpressing RORgT (LBD or full length) fused with Gal4 Luc reporter; 18 hours at 37° C.; luminescence
Outline: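 Jurkat cells expressing Gal4 Luc with either RORgT LBD (aa267-516) or full-length human RORgT, 10,000 cells/well, treated with compound (40 µM to 0.67 nM final, 3-fold dilutions) for 18 h at 37° C. Steady-Glo luminescence read; inhibition of constitutive activity as % signal-window reduction relative to a control compound.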

EC50 | SMILES
104 nM | CC(C)(O)CNC(=O)N1CC[C@@]2(S(=O)(=O)c3ccccc3)c3ccc(OCc4c(Cl)cccc4Cl)cc3CC[C@@H]12 [Example 91, (3aR,9bR)-9b-(benzenesulfonyl)-7-[(2,6-dichlorophenyl)methoxy]-N-(2-hydroxy-2-methylpropyl)-1H,2H,3H,3aH,4H,5H,9bH-benzo[e]indole-3-carboxamide]
8.7 nM | O=C(C1CCS(=O)(=O)C1)N1CC[C@@]2(S(=O)(=O)c3ccc(F)cc3)c3ccc(OCc4cc(Cl)ccc4Cl)cc3CC[C@@H]12 (stereo partly drawn) [Example 199, 3-[(3aR,9bR)-7-[(2,5-dichlorophenyl)methoxy]-9b-(4-fluorobenzenesulfonyl)-1H,2H,3H,3aH,4H,5H,9bH-benzo[e]indole-3-carbonyl]-1λ^6-thiolane-1,1-dione]
15 nM | NC(=O)N1CCC(C(=O)N2CC[C@@]3(S(=O)(=O)c4ccc(F)cc4)c4ccc(OCc5cc(Cl)ccc5Cl)cc4CC[C@@H]23)CC1 [Example 202, 4-[(3aR,9bR)-7-[(2,5-dichlorophenyl)methoxy]-9b-(4-fluorobenzenesulfonyl)-1H,2H,3H,3aH,4H,5H,9bH-benzo[e]indole-3-carbony1]piperidine-1-carboxamide]
39 nM | O=C(O)[C@H]1CC[C@H](CN2CC[C@@]3(S(=O)(=O)c4ccc(F)cc4)c4ccc(OCc5c(F)cccc5C(F)(F)F)cc4CC[C@@H]23)CC1 [Example 10]
37 nM | CC(=O)N1CCC(C(=O)N2CC[C@@]3(S(=O)(=O)c4ccc(F)cc4)c4ccc(OCc5cc(Cl)ccc5Cl)cc4CC[C@@H]23)CC1 [Example 196, 1-{4-[(3aR,9bR)-7-[(2,5-dichlorophenyl)methoxy] -9b-(4-fluorobenzenesulfonyl)-1H,2H,3H,3aH,4H,5H,9bH-benzo[e]indole-3-carbonyl]piperidin-1-yl}ethan-1-one]
7.8 nM | O=C(C1CCS(=O)(=O)CC1)N1CC[C@@]2(S(=O)(=O)c3ccc(F)cc3)c3ccc(OCc4c(F)cccc4Cl)cc3CC[C@@H]12 [Example 166, 4-[(3aR,9bR)-7-[(2-chloro-6-fluorophenyl)methoxy]-9b-(4-fluorobenzenesulfonyl)-1H,2H,3H,3aH,4H,5H,9bH-benzo[e]indole-3-carbonyl]-1λ^6-thiane-1,1-dione]
3.8 nM | O=C(CC1CCS(=O)(=O)C1)N1CC[C@@]2(S(=O)(=O)c3ccc(F)cc3)c3ccc(OCc4c(F)cccc4Cl)cc3CC[C@@H]12 (stereo partly drawn) [Example 15, 3-{2-[(3aR,9bR)-7-[(2-chloro-6-fluorophenyl)methoxy]-9b-(4-fluorobenzenesulfonyl)-1H,2H,3H,3aH,4H,5H,9bH-benzo[e]indol-3-yl]-2-oxoethyl}-1λ^6-thiolane-1,1-dione]
19 nM | Cc1ccccc1Cc1ccc2c(c1)CC[C@H]1N(C(=O)[C@]3(C)CC[C@@H](C(=O)O)CC3)CC[C@@]21S(=O)(=O)c1ccc(F)cc1 [Example 12, (1R,4r)-4-((3aR,9bR)-9b-((4-fluorophenyl)sulfonyl)-7-(2-methylbenzyl)-2,3,3a,4,5,9b-hexahydro-1H-benzo[e]indole-3-carbonyl)-4-methylcyclohexane-1-carboxylic acid]
